Assay results published in patent EP4238972A1, “SUBSTITUTED 1,2,4-THIADIAZOLYL PICOLINAMIDES, SALTS OR N-OXIDES THEREOF AND THEIR USE AS HERBICIDALLY ACTIVE SUBSTANCES” (Bayer AG, priority 2022, dated 2023).

Assays:
Format in all cases: in vivo
[1] = tested on: Echinochloa crus-galli; assay: Herbicidal post-emergence action; conditions: 1280 g/ha, visual assessment after ca. 3 weeks vs untreated controls
From the text: (§1) Seeds of mono- and dicotyledonous weed plants were sown in plastic pots (double sowings with one species of mono- and one species of dicotyledonous weed plants per pot), in sandy loam, covered with soil and grown under controlled growth conditions. 2 to 3 weeks after sowing, the test plants were sprayed in the single-leaf stage. The compounds according to the invention, formulated in the form of wettable powders (WP) or as emulsifiable concentrates (EC), were sprayed onto the green plant parts as an aqueous suspension or as an emulsion, with the addition of 0.5% of an additive, at an application rate of 600 litres of water per hectare (converted). The test plants were placed in the greenhouse for ca. 3 weeks under optimum growth conditions, and then the effect of the preparations is assessed visually in comparison with untreated controls (herbicidal effect in percent (%): 100% effect = plants have died, 0% effect = as control plants).

[2] = tested on: Stellaria media; assay: Herbicidal post-emergence action; conditions: 1280 g/ha, visual assessment after ca. 3 weeks vs untreated controls
From the text: as §1

[3] = tested on: Echinochloa crus-galli; assay: Herbicidal pre-emergence action; conditions: 1280 g/ha, visual grading after ca. 3 weeks vs untreated controls
From the text: (§2) Seeds of mono- and dicotyledonous weed plants were sown in plastic pots (double sowings with one species of mono- and one species of dicotyledonous weed plants per pot), in sandy loam, and covered with soil. The compounds according to the invention, formulated in the form of wettable powders (WP) or as emulsifiable concentrates (EC), were applied to the surface of the covering soil as an aqueous suspension or as an emulsion, with the addition of 0.5% of an additive, at an application rate of 600 litres of water per hectare (converted). Following treatment, the pots were placed in a greenhouse and kept under optimum growth conditions for the test plants. The visual grading of the damage to the test plants is carried out after ca. 3 weeks in comparison to untreated controls (herbicidal effect in percent (%): 100% effect = plants have died, 0% effect = as control plants).

[4] = tested on: Setaria viridis; assay: Herbicidal post-emergence action; conditions: visual assessment after ca. 3 weeks vs untreated controls
From the text: as §1, with “plants). Seeds of mono- and dicotyledonous weed plants were sown in plastic pots (double sowings with one species of mono- and one species of dicotyledonous weed plants per pot), in sandy loam, covered with soil and grown under controlled growth conditions. 2 to 3 weeks after sowing, the test plants were sprayed in the single-leaf stage. The compounds according to the invention, formulated in the form of wettable powders (WP) or as emulsifiable concentrates (EC), are sprayed onto the green plant parts as an aqueous suspension or as an emulsion, with the addition of 0.5% of an additive, at an application rate of 600 litres of water per hectare (converted). The test plants were placed in the greenhouse for ca. 3 weeks under optimum growth conditions, and then the effect of the preparations is assessed visually in comparison with untreated controls (herbicidal effect in percent (%): 100% effect = plants have died, 0% effect = as control plants).” for “plants).”

[5] = tested on: Amaranthus retroflexus; assay: Herbicidal post-emergence action; conditions: visual assessment after ca. 3 weeks vs untreated controls
From the text: as §1, with “plants). Seeds of mono- and dicotyledonous weed plants were sown in plastic pots (double sowings with one species of mono- and one species of dicotyledonous weed plants per pot), in sandy loam, covered with soil and grown under controlled growth conditions. 2 to 3 weeks after sowing, the test plants were sprayed in the single-leaf stage. The compounds according to the invention, formulated in the form of wettable powders (WP) or as emulsifiable concentrates (EC), are sprayed onto the green plant parts as an aqueous suspension or as an emulsion, with the addition of 0.5% of an additive, at an application rate of 600 litres of water per hectare (converted). The test plants were placed in the greenhouse for ca. 3 weeks under optimum growth conditions, and then the effect of the preparations is assessed visually in comparison with untreated controls (herbicidal effect in percent (%): 100% effect = plants have died, 0% effect = as control plants).” for “plants).”

[6] = tested on: Veronica persica; assay: Herbicidal post-emergence action; conditions: visual assessment after ca. 3 weeks vs untreated controls
From the text: as §1, with “plants). Seeds of mono- and dicotyledonous weed plants were sown in plastic pots (double sowings with one species of mono- and one species of dicotyledonous weed plants per pot), in sandy loam, covered with soil and grown under controlled growth conditions. 2 to 3 weeks after sowing, the test plants were sprayed in the single-leaf stage. The compounds according to the invention, formulated in the form of wettable powders (WP) or as emulsifiable concentrates (EC), are sprayed onto the green plant parts as an aqueous suspension or as an emulsion, with the addition of 0.5% of an additive, at an application rate of 600 litres of water per hectare (converted). The test plants were placed in the greenhouse for ca. 3 weeks under optimum growth conditions, and then the effect of the preparations is assessed visually in comparison with untreated controls (herbicidal effect in percent (%): 100% effect = plants have died, 0% effect = as control plants).” for “plants).”

[7] = tested on: Poa annua; assay: Herbicidal post-emergence action; conditions: visual assessment after ca. 3 weeks vs untreated controls
From the text: as §1, with “plants). Seeds of mono- and dicotyledonous weed plants were sown in plastic pots (double sowings with one species of mono- and one species of dicotyledonous weed plants per pot), in sandy loam, covered with soil and grown under controlled growth conditions. 2 to 3 weeks after sowing, the test plants were sprayed in the single-leaf stage. The compounds according to the invention, formulated in the form of wettable powders (WP) or as emulsifiable concentrates (EC), are sprayed onto the green plant parts as an aqueous suspension or as an emulsion, with the addition of 0.5% of an additive, at an application rate of 600 litres of water per hectare (converted). The test plants were placed in the greenhouse for ca. 3 weeks under optimum growth conditions, and then the effect of the preparations is assessed visually in comparison with untreated controls (herbicidal effect in percent (%): 100% effect = plants have died, 0% effect = as control plants).” for “plants).”

[8] = tested on: Matricaria inodora; assay: Herbicidal pre-emergence action; conditions: visual grading after ca. 3 weeks vs untreated controls
From the text: as §2, with “plants). Seeds of mono- and dicotyledonous weed plants were sown in plastic pots (double sowings with one species of mono- and one species of dicotyledonous weed plants per pot), in sandy loam, and covered with soil. The compounds according to the invention, formulated in the form of wettable powders (WP) or as emulsifiable concentrates (EC), were applied to the surface of the covering soil as an aqueous suspension or as an emulsion, with the addition of 0.5% of an additive, at an application rate of 600 litres of water per hectare (converted). Following treatment, the pots were placed in a greenhouse and kept under optimum growth conditions for the test plants. The visual grading of the damage to the test plants is carried out after ca. 3 weeks in comparison to untreated controls (herbicidal effect in percent (%): 100% effect = plants have died, 0% effect = as control plants).” for “plants).”

[9] = tested on: Amaranthus retroflexus; assay: Herbicidal pre-emergence action; conditions: visual grading after ca. 3 weeks vs untreated controls
From the text: as §2, with “plants). Seeds of mono- and dicotyledonous weed plants were sown in plastic pots (double sowings with one species of mono- and one species of dicotyledonous weed plants per pot), in sandy loam, and covered with soil. The compounds according to the invention, formulated in the form of wettable powders (WP) or as emulsifiable concentrates (EC), were applied to the surface of the covering soil as an aqueous suspension or as an emulsion, with the addition of 0.5% of an additive, at an application rate of 600 litres of water per hectare (converted). Following treatment, the pots were placed in a greenhouse and kept under optimum growth conditions for the test plants. The visual grading of the damage to the test plants is carried out after ca. 3 weeks in comparison to untreated controls (herbicidal effect in percent (%): 100% effect = plants have died, 0% effect = as control plants).” for “plants).”

[10] = tested on: Poa annua; assay: Herbicidal pre-emergence action; conditions: visual grading after ca. 3 weeks vs untreated controls
From the text: as §2, with “plants). Seeds of mono- and dicotyledonous weed plants were sown in plastic pots (double sowings with one species of mono- and one species of dicotyledonous weed plants per pot), in sandy loam, and covered with soil. The compounds according to the invention, formulated in the form of wettable powders (WP) or as emulsifiable concentrates (EC), were applied to the surface of the covering soil as an aqueous suspension or as an emulsion, with the addition of 0.5% of an additive, at an application rate of 600 litres of water per hectare (converted). Following treatment, the pots were placed in a greenhouse and kept under optimum growth conditions for the test plants. The visual grading of the damage to the test plants is carried out after ca. 3 weeks in comparison to untreated controls (herbicidal effect in percent (%): 100% effect = plants have died, 0% effect = as control plants).” for “plants).”

[11] = tested on: Stellaria media; assay: Herbicidal pre-emergence action; conditions: visual grading after ca. 3 weeks vs untreated controls
From the text: as §2, with “plants). Seeds of mono- and dicotyledonous weed plants were sown in plastic pots (double sowings with one species of mono- and one species of dicotyledonous weed plants per pot), in sandy loam, and covered with soil. The compounds according to the invention, formulated in the form of wettable powders (WP) or as emulsifiable concentrates (EC), were applied to the surface of the covering soil as an aqueous suspension or as an emulsion, with the addition of 0.5% of an additive, at an application rate of 600 litres of water per hectare (converted). Following treatment, the pots were placed in a greenhouse and kept under optimum growth conditions for the test plants. The visual grading of the damage to the test plants is carried out after ca. 3 weeks in comparison to untreated controls (herbicidal effect in percent (%): 100% effect = plants have died, 0% effect = as control plants).” for “plants).”

[12] = tested on: Alopecurus myosuroides; assay: Herbicidal post-emergence action; conditions: 1280 g/ha, visual assessment after ca. 3 weeks vs untreated controls
From the text: as §1

[13] = tested on: Matricaria inodora; assay: Herbicidal post-emergence action; conditions: 1280 g/ha, visual assessment after ca. 3 weeks vs untreated controls
From the text: as §1

[14] = tested on: Lolium rigidum; assay: Herbicidal post-emergence action; conditions: 1280 g/ha, visual assessment after ca. 3 weeks vs untreated controls
From the text: as §1

[15] = tested on: Setaria viridis; assay: Herbicidal pre-emergence action; conditions: 1280 g/ha, visual grading after ca. 3 weeks vs untreated controls
From the text: as §2

[16] = tested on: Kochia scoparia; assay: Herbicidal post-emergence action; conditions: visual assessment after ca. 3 weeks vs untreated controls
From the text: as §1, with “plants). Seeds of mono- and dicotyledonous weed plants were sown in plastic pots (double sowings with one species of mono- and one species of dicotyledonous weed plants per pot), in sandy loam, covered with soil and grown under controlled growth conditions. 2 to 3 weeks after sowing, the test plants were sprayed in the single-leaf stage. The compounds according to the invention, formulated in the form of wettable powders (WP) or as emulsifiable concentrates (EC), are sprayed onto the green plant parts as an aqueous suspension or as an emulsion, with the addition of 0.5% of an additive, at an application rate of 600 litres of water per hectare (converted). The test plants were placed in the greenhouse for ca. 3 weeks under optimum growth conditions, and then the effect of the preparations is assessed visually in comparison with untreated controls (herbicidal effect in percent (%): 100% effect = plants have died, 0% effect = as control plants).” for “plants).”

[17] = tested on: Lolium rigidum; assay: Herbicidal pre-emergence action; conditions: visual grading after ca. 3 weeks vs untreated controls
From the text: as §2, with “plants). Seeds of mono- and dicotyledonous weed plants were sown in plastic pots (double sowings with one species of mono- and one species of dicotyledonous weed plants per pot), in sandy loam, and covered with soil. The compounds according to the invention, formulated in the form of wettable powders (WP) or as emulsifiable concentrates (EC), were applied to the surface of the covering soil as an aqueous suspension or as an emulsion, with the addition of 0.5% of an additive, at an application rate of 600 litres of water per hectare (converted). Following treatment, the pots were placed in a greenhouse and kept under optimum growth conditions for the test plants. The visual grading of the damage to the test plants is carried out after ca. 3 weeks in comparison to untreated controls (herbicidal effect in percent (%): 100% effect = plants have died, 0% effect = as control plants).” for “plants).”

[18] = tested on: Veronica persica; assay: Herbicidal pre-emergence action; conditions: 1280 g/ha, visual grading after ca. 3 weeks vs untreated controls
From the text: as §2

SMILES	herbicidal effect STEME [2] [%]	herbicidal effect ECHCG [3] [%]	herbicidal effect SETVI ([4]; 1280 g/ha) [%]	herbicidal effect AMARE ([5]; 320 g/ha) [%]	herbicidal effect AMARE ([5]; 1280 g/ha) [%]	herbicidal effect VERPE ([6]; 320 g/ha) [%]	herbicidal effect VERPE ([6]; 1280 g/ha) [%]	herbicidal effect POAAN ([7]; 320 g/ha) [%]	herbicidal effect POAAN ([7]; 1280 g/ha) [%]	herbicidal effect MATIN ([8]; 1280 g/ha) [%]	herbicidal effect AMARE ([9]; 1280 g/ha) [%]	herbicidal effect POAAN ([10]; 1280 g/ha) [%]	herbicidal effect STEME ([11]; 1280 g/ha) [%]	herbicidal effect KCHSC ([16]; 320 g/ha) [%]	herbicidal effect KCHSC ([16]; 1280 g/ha) [%]	herbicidal effect LOLRI ([17]; 1280 g/ha) [%]	herbicidal effect POAAN ([10]; 320 g/ha) [%]	also measured
O=C(Nc1ncns1)c1nc(Cl)ccc1Br [Example I-039, 3-bromo-6-chloro-N-(1,2,4-thiadiazol-5-yl)pyridine-2-carboxamide]	90	90	90	100	100	90	100	90	90	100	100	90	90	–	–	–	–	herbicidal effect ECHCG [1]: 90%
O=C(Nc1nc(Cl)ns1)c1nc(F)ccc1Br [Example I-017, 3-bromo-N-(3-chloro-1,2,4-thiadiazol-5-yl)-6-fluoro-pyridine-2-carboxamide]	90	90	90	90	90	90	90	90	90	100	100	90	90	90	90	90	90	herbicidal effect ALOMY [12]: 90%; herbicidal effect MATIN [13]: 90%; herbicidal effect LOLRI [14]: 90%; herbicidal effect SETVI [15]: 100%; herbicidal effect SETVI ([4]; 320 g/ha): 90%; herbicidal effect MATIN ([8]; 320 g/ha): 100%; herbicidal effect LOLRI ([17]; 320 g/ha): 90%; herbicidal effect STEME ([11]; 320 g/ha): 90%
O=C(Nc1ncns1)c1ncc(Cl)cc1C(F)(F)F [Example I-036, 5-chloro-N-(1,2,4-thiadiazol-5-yl)-3-(trifluoromethyl)pyridine-2-carboxamide]	–	–	–	–	90	–	90	–	–	–	90	–	–	–	–	–	–	herbicidal effect VERPE [18]: 90%
O=C(Nc1ncns1)c1nc(Cl)ccc1OC(F)(F)F [Example I-013, 6-chloro-N-(1,2,4-thiadiazol-5-yl)-3-(trifluoromethoxy)pyridine-2-carboxamide]	90	–	–	–	100	–	–	90	100	–	100	100	90	90	100	90	100	herbicidal effect AMARE ([9]; 320 g/ha): 90%
